From patent publication US20240067693A1, “POLYPEPTIDES AND USES THEREOF” (MEDIMMUNE LIMITED, priority 2020, published 2024) come the findings set out here.

As a reminder, the EC50 is the midpoint of the concentration-response curve.

Molecules are shown by their SMILES. Numbered stars: 1 amine (or outer) side, 2 acyl side, 3 side chain; on linkers, the order of the positions; unused ones are H or OH. Bridge positions count the residues as written; N and C are the ends. Square brackets hold non-standard residues; d marks the D form. Side chains are listed from the residue outwards. Peptide text beside a SMILES is read from it. * marks the point of attachment. C18 diacid = O=C(O)CCCCCCCCCCCCCCCCC(=O)*; γGlu = O=C(O)[C@H](CCC(=O)[*:2])N[*:1]; AEEA = NCCOCCOCC(=O)O; Aib = CC(C)(N)C(=O)O

Assay [1] addresses T1, human amylin receptor (calcitonin receptor co-expressed with receptor activity modifying protein, RAMP3) (hAMYR3) (Homo sapiens, UniProt O60896+P30988).
T1 construct: expressed in transfected cells
T1 sequence (P30988 25-474): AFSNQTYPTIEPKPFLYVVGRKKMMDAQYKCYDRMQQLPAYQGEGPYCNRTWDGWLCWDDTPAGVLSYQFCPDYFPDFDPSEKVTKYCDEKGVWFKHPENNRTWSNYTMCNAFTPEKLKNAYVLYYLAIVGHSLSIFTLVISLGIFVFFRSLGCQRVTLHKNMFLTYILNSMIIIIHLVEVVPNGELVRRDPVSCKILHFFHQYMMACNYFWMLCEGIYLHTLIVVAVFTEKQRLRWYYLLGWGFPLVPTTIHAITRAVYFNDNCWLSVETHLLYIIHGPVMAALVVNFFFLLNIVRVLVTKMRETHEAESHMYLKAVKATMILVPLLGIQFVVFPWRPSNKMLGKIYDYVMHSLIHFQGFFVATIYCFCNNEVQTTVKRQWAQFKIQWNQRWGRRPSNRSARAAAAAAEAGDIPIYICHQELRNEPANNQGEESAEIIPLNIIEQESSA
T1 sequence (O60896 24-148 partner): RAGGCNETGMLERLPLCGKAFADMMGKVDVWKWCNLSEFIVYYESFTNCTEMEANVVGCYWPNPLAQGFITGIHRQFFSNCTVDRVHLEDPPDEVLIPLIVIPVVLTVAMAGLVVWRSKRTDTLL
The assay can be described thus: cAMP production in 1321N1 cells with stable recombinant expression of human amylin receptor (hAMYR3). It is filed as cell-based. As to conditions: for Ratio (selectivity hAMYR vs hCTR, ratio of EC50 values at the two receptors): EC50 hCTR / EC50 hAMYR3; for EC50: cAMP, 1321N1 cells, assay buffer with 0.1% BSA, read-out: EC50 (pM) hAMYR3. A digest of the protocol:
(§1)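 Receptor-expressing cells (human receptors in 1321N1, rat receptors in HEK) incubated 30 min at room temperature with peptide in HBSS/HEPES pH 7.4, 0.1% BSA, 0.5 mM IBMX. cAMP read by HTRF; EC50 from 4-parameter fit as % of maximal amylin or calcitonin response.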

The target of assay [2] is T2, human calcitonin receptor (hCTR) (Homo sapiens, UniProt P30988).
T2 construct: expressed in transfected cells
T2 sequence (P30988 25-474): T1 sequence (P30988 25-474)
The assay can be described thus: cAMP production in 1321N1 cells with stable recombinant expression of human calcitonin receptor (hCTR). It is filed as cell-based. As to conditions: cAMP, 1321N1 cells, assay buffer with 0.1% BSA; read-out: EC50 (pM) hCTR. In outline:
as §1
(In general: Cyclic AMP is a second messenger, typically raised through Gs and lowered through Gi signalling.)

On to `CC[C@H](C)[C@H](NC(=O)[C@@H]1CCCN1C(=O)CNC(=O)[C@H](Cc1ccccc1)NC(=O)[C@H](CC(N)=O)NC(=O)C(C)(C)NC(=O)[C@H](CO)NC(=O)[C@H](CO)NC(=O)[C@H](Cc1c[nH]cn1)NC(=O)[C@H](CO)NC(=O)[C@H](CC(C)C)NC(=O)[C@H](Cc1ccccc1)NC(=O)[C@H](CC(N)=O)NC(=O)[C@H](C)NC(=O)[C@H](CC(C)C)NC(=O)[C@H](CCCNC(=N)N)NC(=O)[C@H](CCC(N)=O)NC(=O)[C@@H](NC(=O)[C@H](C)NC(=O)[C@@H]1CSSC[C@H](NC(=O)[C@H](CCCCN)NC(=O)[C@@H](N)CCCCNC(=O)CC[C@H](NC(=O)CCCCCCCCCCCCCCCCC(=O)O)C(=O)O)C(=O)N[C@@H](CC(N)=O)C(=O)N[C@@H]([C@@H](C)O)C(=O)N[C@@H](C)C(=O)N[C@@H]([C@@H](C)O)C(=O)N1)[C@@H](C)O)C(=O)N[C@@H](CC(C)C)C(=O)N1CCC[C@H]1C(=O)N1CCC[C@H]1C(=O)N[C@H](C(=O)N[C@@H](CC(N)=O)C(=O)N[C@H](C(=O)NCC(=O)N[C@@H](CO)C(=O)N[C@@H](CC(N)=O)C(=O)N[C@H](C(=O)N[C@@H](Cc1ccc(O)cc1)C(N)=O)[C@@H](C)O)C(C)C)[C@@H](C)O` [Peptide 37, K(γE-C18diacid)K[CNTATC]ATQRLANFLSHSS(Aib)NFGPILPPTNVGSNTY-amide] (H-K([γGlu-C18 diacid])KCNTATCATQRLANFLSHSS[Aib]NFGPILPPTNVGSNTY-NH2; disulfide 3-8), for which the “Ratio (selectivity hAMYR vs hCTR, ratio of EC50 values at the two receptors)” value in assay [1] was determined as 8. Further, the results for the EC50 in assay [1] and in assay [2] were 249 pM and 1960 pM, respectively.

`CC[C@H](C)[C@H](NC(=O)[C@@H]1CCCN1C(=O)CNC(=O)[C@H](Cc1ccccc1)NC(=O)[C@H](CC(N)=O)NC(=O)C(C)(C)NC(=O)[C@H](CO)NC(=O)[C@H](CO)NC(=O)[C@H](Cc1c[nH]cn1)NC(=O)[C@H](CCC(=O)O)NC(=O)[C@H](CC(C)C)NC(=O)[C@H](Cc1ccccc1)NC(=O)[C@H](CC(N)=O)NC(=O)[C@H](C)NC(=O)[C@H](CC(C)C)NC(=O)[C@H](CCCNC(=N)N)NC(=O)[C@H](CCC(N)=O)NC(=O)[C@@H](NC(=O)[C@H](C)NC(=O)[C@@H]1CSSC[C@H](NC(=O)[C@H](CCCCN)NC(=O)[C@@H](N)CCCCNC(=O)CC[C@H](NC(=O)CCCCCCCCCCCCCCCCC(=O)O)C(=O)O)C(=O)N[C@@H](CC(N)=O)C(=O)N[C@@H]([C@@H](C)O)C(=O)N[C@@H](C)C(=O)N[C@@H]([C@@H](C)O)C(=O)N1)[C@@H](C)O)C(=O)N[C@@H](CC(C)C)C(=O)N1CCC[C@H]1C(=O)N1CCC[C@H]1C(=O)N[C@H](C(=O)N[C@@H](CC(N)=O)C(=O)N[C@H](C(=O)NCC(=O)N[C@@H](CO)C(=O)N[C@@H](CC(N)=O)C(=O)N[C@H](C(=O)N[C@@H](Cc1ccc(O)cc1)C(N)=O)[C@@H](C)O)C(C)C)[C@@H](C)O` [Peptide 39, K(γE-C18diacid)K[CNTATC]ATQRLANFLEHSS(Aib)NFGPILPPTNVGSNTY-amide] (H-K([γGlu-C18 diacid])KCNTATCATQRLANFLEHSS[Aib]NFGPILPPTNVGSNTY-NH2; disulfide 3-8): in assay [1], the “Ratio (selectivity hAMYR vs hCTR, ratio of EC50 values at the two receptors)” value is on record as 10 and the EC50 was 1050 pM. The EC50 in assay [2] was found to be 10400 pM.

`CC[C@H](C)[C@H](NC(=O)[C@@H]1CCCN1C(=O)CNC(=O)[C@H](Cc1ccccc1)NC(=O)[C@H](CC(N)=O)NC(=O)C(C)(C)NC(=O)[C@H](CO)NC(=O)[C@H](CO)NC(=O)[C@H](Cc1c[nH]cn1)NC(=O)[C@@H](NC(=O)[C@H](CC(C)C)NC(=O)[C@H](Cc1ccccc1)NC(=O)[C@H](CC(N)=O)NC(=O)[C@H](C)NC(=O)[C@H](CC(C)C)NC(=O)[C@H](CCCNC(=N)N)NC(=O)[C@H](CCC(N)=O)NC(=O)[C@@H](NC(=O)[C@H](C)NC(=O)[C@@H]1CSSC[C@H](NC(=O)[C@H](CCCCN)NC(=O)[C@@H](N)CCCCNC(=O)CC[C@H](NC(=O)CCCCCCCCCCCCCCCCC(=O)O)C(=O)O)C(=O)N[C@@H](CC(N)=O)C(=O)N[C@@H]([C@@H](C)O)C(=O)N[C@@H](C)C(=O)N[C@@H]([C@@H](C)O)C(=O)N1)[C@@H](C)O)C(C)C)C(=O)N[C@@H](CC(C)C)C(=O)N1CCC[C@H]1C(=O)N1CCC[C@H]1C(=O)N[C@H](C(=O)N[C@@H](CC(N)=O)C(=O)N[C@H](C(=O)NCC(=O)N[C@@H](CO)C(=O)N[C@@H](CCC(=O)O)C(=O)N[C@H](C(=O)N[C@@H](Cc1ccc(O)cc1)C(N)=O)[C@@H](C)O)C(C)C)[C@@H](C)O` [Peptide 42, K(γE-C18diacid)K[CNTATC]ATQRLANFLVHSS(Aib)NFGPILPPTNVGSETY-amide] (H-K([γGlu-C18 diacid])KCNTATCATQRLANFLVHSS[Aib]NFGPILPPTNVGSETY-NH2; disulfide 3-8): in assay [1], the “Ratio (selectivity hAMYR vs hCTR, ratio of EC50 values at the two receptors)” value came out at 6 and the EC50 was 470 pM. For the same compound, the EC50 in assay [2] stood at 2950 pM.

In the case of `CC[C@H](C)[C@H](NC(=O)[C@@H]1CCCN1C(=O)CNC(=O)[C@H](Cc1ccccc1)NC(=O)[C@H](CC(N)=O)NC(=O)C(C)(C)NC(=O)[C@H](CO)NC(=O)[C@H](CO)NC(=O)[C@H](Cc1c[nH]cn1)NC(=O)[C@H](CCCNC(=N)N)NC(=O)[C@H](CC(C)C)NC(=O)[C@H](Cc1ccccc1)NC(=O)[C@H](CC(N)=O)NC(=O)[C@H](C)NC(=O)[C@H](CC(C)C)NC(=O)[C@H](CCCNC(=N)N)NC(=O)[C@H](CCC(N)=O)NC(=O)[C@@H](NC(=O)[C@H](C)NC(=O)[C@@H]1CSSC[C@H](NC(=O)[C@@H](N)CCCCNC(=O)COCCOCCNC(=O)COCCOCCNC(=O)CC[C@H](NC(=O)CCCCCCCCCCCCCCCCC(=O)O)C(=O)O)C(=O)N[C@@H](CC(N)=O)C(=O)N[C@@H]([C@@H](C)O)C(=O)N[C@@H](C)C(=O)N[C@@H]([C@@H](C)O)C(=O)N1)[C@@H](C)O)C(=O)N[C@@H](CC(C)C)C(=O)N1CCC[C@H]1C(=O)N1CCC[C@H]1C(=O)N[C@H](C(=O)N[C@@H](CCC(=O)O)C(=O)N[C@H](C(=O)NCC(=O)N[C@@H](CO)C(=O)N[C@@H](CC(N)=O)C(=O)N[C@H](C(=O)N[C@@H](Cc1ccc(O)cc1)C(N)=O)[C@@H](C)O)C(C)C)[C@@H](C)O` [Peptide 45, K(O2Oc-O2Oc-γE-C18diacid)[CNTATC]ATQRLANFLRHSS(Aib)NFGPILPPTEVGSNTY-amide] (H-K([AEEA-AEEA-γGlu-C18 diacid])CNTATCATQRLANFLRHSS[Aib]NFGPILPPTEVGSNTY-NH2; disulfide 2-7; N-terminus assumed), the “Ratio (selectivity hAMYR vs hCTR, ratio of EC50 values at the two receptors)” value in assay [1] was 29. In addition, the EC50 worked out at 588 pM in assay [1] and 16900 pM in assay [2].

As for `CC[C@H](C)[C@H](NC(=O)[C@@H]1CCCN1C(=O)CNC(=O)[C@H](Cc1ccccc1)NC(=O)[C@H](CC(N)=O)NC(=O)C(C)(C)NC(=O)[C@H](CO)NC(=O)[C@H](CO)NC(=O)[C@H](Cc1c[nH]cn1)NC(=O)[C@@H](NC(=O)[C@H](CC(C)C)NC(=O)[C@H](Cc1ccccc1)NC(=O)[C@H](Cc1c[nH]cn1)NC(=O)[C@H](C)NC(=O)[C@H](CC(C)C)NC(=O)[C@H](CCCNC(=N)N)NC(=O)[C@H](CCC(N)=O)NC(=O)[C@@H](NC(=O)[C@H](C)NC(=O)[C@@H]1CSSC[C@H](NC(=O)[C@H](CCCCN)NC(=O)[C@@H](N)CCCCNC(=O)CC[C@H](NC(=O)CCCCCCCCCCCCCCCCC(=O)O)C(=O)O)C(=O)N[C@@H](CC(N)=O)C(=O)N[C@@H]([C@@H](C)O)C(=O)N[C@@H](C)C(=O)N[C@@H]([C@@H](C)O)C(=O)N1)[C@@H](C)O)C(C)C)C(=O)N[C@@H](CC(C)C)C(=O)N1CCC[C@H]1C(=O)N1CCC[C@H]1C(=O)N[C@H](C(=O)N[C@@H](CC(N)=O)C(=O)N[C@H](C(=O)NCC(=O)N[C@@H](CO)C(=O)N[C@@H](CC(N)=O)C(=O)N[C@H](C(=O)N[C@@H](Cc1ccc(O)cc1)C(N)=O)[C@@H](C)O)C(C)C)[C@@H](C)O` [Peptide 46, K(γE-C18diacid)K[CNTATC]ATQRLAHFLVHSS(Aib)NFGPILPPTNVGSNTY-amide] (H-K([γGlu-C18 diacid])KCNTATCATQRLAHFLVHSS[Aib]NFGPILPPTNVGSNTY-NH2; disulfide 3-8), in assay [1], the “Ratio (selectivity hAMYR vs hCTR, ratio of EC50 values at the two receptors)” value worked out at 3 and the EC50 came to 109 pM. In assay [2], the EC50 was 362 pM.
